In patent US4131615A, “Furan derivative for use as pharmaceutical product particularly for the treatment of rheumatic illnesses” (A. Wasserman S.p.A., priority 1977, dated 1978):

What was measured:
[1] = test system: edema induced by Carrageenan; assay: Anti-inflammatory activity, Carrageenan-induced edema; type: in vivo, male Sprague Dawley rats; details: 80 mg/Kg oral, 30 minutes before Carrageenan, after 3 hours
Experimental: (§1) The product of the EXAMPLE 1, ±αmethyl-4-(furan-2-carbonyl)phenyl acetic acid, was subjected to toxicological and pharmacological tests in rats and mice. The animals used were Sprague Dawley rats and Swiss mice of both sexes, to which the product was administered orally as a 2% suspension in gum arabic parenterally as the sodium salt.
An edema was induced in male rats weighing about 120 grams by injection into the aponeurosis under the plantaris of the left foot of 0.1 ml of 1% Carrageenan in saline.
The oral administration of 80-40-20 mg/Kg of product, 30 minutes before the inflammatory agent, reduced after 3 hours the development of the edema by rispectively 53%-47% -23% with respect to that induced in the controls.

[2] = Acute oral toxicity in rats; parameters: species or system female Sprague Dawley rats; details: in vivo, rat, 14 days, approximate value
Experimental: as §1
(§2) This has been tested in male and female mice weighing from 18 to 22 g and in female rats weighing from 90 to 120 grams.
(§3) The product was administered to groups of 6 mice and groups of 6 rats, mortality being looked for 14 days after the administration.

[3] = test system: contortions caused by phenyl-p-benzoquinone; assay: Analgesic activity, phenyl-p-benzoquinone contortions; type: in vivo, female Swiss mice; details: Mus musculus; oral, female mice, contortions by intraperitoneal 0.02% phenyl-p-benzoquinone
Experimental: as §1
The oral administration of the product to female mice weighing from 18 to 22 grams reduced the number of contortions caused by the intraperitoneal injection of 0.1 ml/10 g of body weight of a 0.02% solution of phenyl-p-benzoquinone.

[4] = test system: Nystatin subplantaris edema; assay: Curative activity, Nystatin subplantaris edema; type: in vivo; details: rat, doses equal to those cited above (80-40-20 mg/Kg)
Experimental: as §1

[5] = test system: Cotton-Pellet induced granuloma; assay: Anti-inflammatory activity on Cotton-Pellet induced granuloma; type: in vivo, female Sprague Dawley rats; details: 15 mg/Kg oral daily for 7 days, divided into 4 administrations over 9 hours
Experimental: as §1
3) Anti-inflammatory activity on Cotton-Pellet induced granuloma.
The oral administration daily for 7 days of a dose of 15 mg/Kg of the product, divided into 4 administrations taken over a time of 9 hours, reduced the formation of granulomatous tissue formed around Cotton-Pelletsplanted aseptically under the skin of female rats, weighing from 180 to 200 grams, by 17% with respect to controls.

[6] = Acute oral toxicity in mice; parameters: species or system male and female Swiss mice; details: in vivo, mouse, 14 days, approximate value
Experimental: as §1, §2, §3

[7] = test system: experimentally induced arthritis (Freund's adjuvant arthritis); assay: Freund's adjuvant arthritis; type: in vivo; details: 20-40 mg/Kg oral, rat, confirmed by radiologic test
Yeast-Induced fever = assay: Antipyretic Effect in Yeast-Induced fever; type: in vivo, female Sprague Dawley rats; details: 80 mg/Kg oral, after 60 minutes (peak-effect)
Experimental: as §1
5) Antipyretic Effect in Yeast-Induced fever.
The oral administration of rispectively 80-40-20 mg/Kg of the product to female rats reduces the increase in temperature of the rectum, caused by the injection under the skin of 10 ml/Kg of 15% brewer's yeast in 1% arabic gum, by rispectively 71%-63%-33% after 60 minutes (peak-effect) from the administration.

arterial pressure = assay: Action on arterial pressure; type: in vivo; details: endovenous injection, 2.5-12.5-62.5 mg/Kg, rabbit
Excerpt: 7) Action on arterial pressure.

Structure (SMILES): CC(C(=O)O)c1ccc(C(=O)c2ccco2)cc1 (racemic) [Example 1, ±α-methyl-4-(furan-2-carbonyl)-phenylacetic acid]
- reduction of the development of the edema with respect to controls [1]: 53%
- LD50 at 336 h [2]: ~980 mg/kg
- ED50 [3]: 4.35 mg/kg
- regress of the Nystatin subplantaris edema (curative activity) [4]: induce in the rat a regress of the Nystatin subplantaris edema
- reduction of the formation of granulomatous tissue with respect to controls [5]: 17%
- LD50 at 336 h [6]: ~1000 mg/kg
- Recovery from experimentally induced arthritis [7]: Recovery from experimentally induced arthritis in the rat (Freund's adjuvant arthritis) has been obtained
- reduction of the increase in temperature of the rectum (Yeast-Induced fever): 71%
- variations in the blood pressure (arterial pressure): does not induce significant variations in the blood pressure
